Test results as given in patent publication US20250034171A1, “IMIDAZOPYRIDINE AMIDES AND RELATED COMPOUNDS FOR USE IN THE TREATMENT OF BACTERIAL INFECTIONS” (priority 2021, published 2025).
Converted amounts (≈) assume the structure as drawn. Like-named read-outs stand apart in the source and are kept apart here.

Assays:
[1] = HTChem stab assay (chemical stability in buffer pH2, pH4 and pH7 vs DMSO reference); assay type: physicochemical
Experimental: HTChem stab assay was used to assess the chemical stability of the compounds. 72 h stirring at rt in a buffer pH2, pH4 and pH7 vs a reference DMSO solution. HTChem stab assay is based on the handbook of Pharmaceutical Stress Testing, Predicting Drug Degradation, second edition, authors Baertschi, Alsante, Reed ISBN 978-143980179-6.
Compounds were plated (1 μl 10 mM DMSO stock in 96 well plate (DMSO control+3 pH conditions), one plate per condition).
200 μL of respectively DMSO, Buffer/DMSO mix pH2, Buffer/DMSO mix pH4 and Buffer/DMSO mix pH7 was added.
After 72 h shaking (300 rpm) at room temperature the samples were analysed by LC/UV/MS. Chromatograms of samples (stability conditions) were compared with the chromatograms of control sample (DMSO). Extra peaks were flagged and identified by mass spectrometry. Sample purity (reference included) were reported.
• pH3 buffer: For 11; weigh 4.14 g NaH2PO4·H2O, add 600 ml H2O, add H3PO4 to pH3, add H2O to 1000 ml. Filter over 0.2 μm and store at 4° C. Expires after 30 days. • pH6 buffer: For 1 l; weigh 4.14 g NaH2PO4·H2O, add 600 ml H2O, add 1N NaOH to pH6, add H2O to 1000 ml. Filter over […] and store at 4° C. Expires after 30 days.
• pH2 Buffer/DMSO (StabSolvent): mix 2 parts of HCl 0.1N with 1 part of DMSO • pH4 Buffer/DMSO (StabSolvent): mix 2 parts of buffer pH3 with 1 part of DMSO • pH7 Buffer/DMSO (StabSolvent): mix 2 parts of buffer pH6 with 1 part of DMSO measure pH prior to use.
Instrument: Acquity UPLC; Column: Acquity HSS T3, 50 mm length×2.1 mm i.d., 1.8 μm particle size. Detectors: PDA (250-350 nm) and SQD2 (90-1500m/z). Mobile phase A: 0.1% Formic acid in water; Mobile phase B: 0.1% Formic acid in Acetonitrile.
Injection volume: 5 μL, flow rate 0.6 mL/min.
Data processing including peak integration and identification was done with Waters OpenLynx software.

[2] = test system: Mycobacterium tuberculosis strain H37Rv; assay: Test 2: MIC determination against M. tuberculosis, resazurin fluorescence; assay type: cell-based; conditions: Test 2, M. tuberculosis H37Rv; for MIC90: read-out: Bacterial activity MIC90; for IC50: read-out: Bacterial activity pMIC50 (converted)
[3] = Metabolic stability in liver microsomes (intrinsic clearance); assay type: in vitro ADME; conditions: for half-life at 1 µM / microsomal CLint at 1 µM: microsomes
Experimental: The test compound was incubated under the generic condition (0.5 mg/ml microsomal protein, 1 mM NADPH, 1 mM MgCl2, and 0.1 M phosphate buffer, pH 7.4, 37° C.) at a defined substrate concentration (typically 1 μM) in liver microsomes of selected species across a time course (typically 0, 5, 10, 20, 40 and 60 minutes) at Cyprotex (Cheshire, UK). The liver microsomes, buffer and test compound will be pre-incubated for 5 minutes. The addition of the co-factor NADPH will initiate the reaction and the reaction was terminated by addition of acetonitrile. The samples were centrifuged prior to analysis by LC-MS/MS analysis. The relative amount of parent compound remaining in the active incubations vs. the control incubations (t=0 mins) for each compound was measured by peak area comparison. The in vitro metabolic half-life (t1/2) was calculated using the slope of the log-linear regression from the percentage parent compound remaining versus time relationship (κ), The in vitro intrinsic clearance (Cl^int) (μl/min/mg microsomal protein) was calculated using the in vitro metabolic half-life, incubation volume and the weight of microsomal protein in the incubation.

[4] = buffer pH2/DMSO, 72 h stirring at rt
[5] = buffer pH4/DMSO, 72 h stirring at rt
[6] = buffer pH7/DMSO, 72 h stirring at rt
[7] = reference DMSO solution, 72 h stirring at rt
[8] = Mycobacterium tuberculosis, H37RV
[9] = human, pH 7.4, Metabolic Stability Half life (human, min.)
[10] = human, pH 7.4, human liver microsomes, read-out: Metabolic Stability (liver microsome intrinsic clearance) Clearance (human, μl/min./mg protein)
[11] = mouse, pH 7.4, Metabolic Stability Half life (mouse, min.)
[12] = mouse, pH 7.4, mouse liver microsomes, read-out: Metabolic Stability (liver microsome intrinsic clearance) Clearance (mouse, μl/min./mg protein)

| Structure (SMILES) | Chemical stability data, Vehicle DMSO ([1]; 72 h, 50 µM) | Chemical stability data, Buffer pH2 ([1]; 72 h, 50 µM, pH 2) | Chemical stability data, Buffer pH4 ([1]; 72 h, 50 µM, pH 4) | Chemical stability data, Buffer pH7 ([1]; 72 h, 50 µM, pH 7) | MIC90 [2, 8] | IC50 [2, 8] | half-life at 1 µM [3, 11] | microsomal CLint at 1 µM [3, 12] | other results |
| --- | --- | --- | --- | --- | --- | --- | --- | --- | --- |
| CCc1nc2cc(F)ccn2c1C(=O)NCc1ccc(-c2nc3n(n2)CCC(C(F)(F)F)C3)cc1 (racemic) [Compound 7ab] |  |  |  |  |  |  |  |  | Chemical stability data, Buffer pH2 [1, 4]: 100%; Chemical stability data, Buffer pH4 [1, 5]: 100%; Chemical stability data, Buffer pH7 [1, 6]: 100%; Chemical stability data, Vehicle DMSO [1, 7]: 100%; Bacterial activity pMIC50 [2]: 8.362; MIC90 [2]: 0.014 µM (≈ 0.00681 µg/mL); Metabolic Stability (liver microsome intrinsic clearance) Clearance (mouse, μl/min./mg protein) ([3]; mouse liver microsomes): 20.5 μl/min./mg protein; Metabolic Stability Half life (mouse, min.) ([3]; mouse liver microsomes): 1.13 h |
| CCc1nc2ncc(C)cn2c1C(=O)NCc1ccc(-c2nc3n(n2)CCC(C(F)(F)F)C3)cc1 (single isomer, unassigned) [Compound 1a] | 100% | 100% | 100% | 100% | 0.009 µM (≈ 0.00435 µg/mL) | 3130 pM | > 3 h | < 7.7 µL/min/mg | half-life at 1 µM [3, 9]: > 3 h; microsomal CLint at 1 µM [3, 10]: < 7.7 µL/min/mg |
| CCc1nc2ncc(C)cn2c1C(=O)NCc1ccc(-c2cn3c(n2)CC(C(F)(F)F)CC3)cc1 (stereo not drawn) [Compound 3ab] |  |  |  |  | 0.009 µM (≈ 0.00434 µg/mL) | 3550 pM | 1.7 h | 13.6 µL/min/mg | half-life at 1 µM [3, 9]: 1.54 h; microsomal CLint at 1 µM [3, 10]: 15 µL/min/mg |
| CCc1nc2ncc(CN)cn2c1C(=O)NCc1ccc(-c2nc3n(n2)CCC(C(F)(F)F)C3)cc1 (stereo not drawn) [Compound 16ab] | 77% | 74% | 74% | 80% |  | > 500000 pM |  |  |  |
| CCc1nc2ncc(C)cn2c1C(=O)NCc1ccc(-c2nc3n(c2C)CCC(C(F)(F)F)C3)cc1 (stereo not drawn) [Compound 19ab] | 98% | 98% | 98% | 98% | 0.047 µM (≈ 0.0233 µg/mL) | 11500 pM |  |  |  |
| CCc1nc2ncc(C)cn2c1C(=O)NCc1ccc(-c2nn3c(c2C)CC(C(F)(F)F)CC3)cc1 (stereo not drawn) [Compound 21ab] | 100% | 100% | 100% | 100% | 0.011 µM (≈ 0.00546 µg/mL) | 3490 pM |  |  |  |
| CCc1nc2ncc(C)cn2c1C(=O)NCc1ccc(-c2nc3n(n2)CCC(C2CC2)C3)cc1 (stereo not drawn) [Compound 27ab] | 100% | 100% | 100% | 100% | 0.014 µM (≈ 0.00638 µg/mL) | 4610 pM |  |  |  |
| CCCC1CCn2nc(-c3ccc(CNC(=O)c4c(CC)nc5ncc(C)cn45)cc3)nc2C1 (stereo not drawn) [Compound 28ab] | 100% | 100% | 100% | 100% | 0.011 µM (≈ 0.00503 µg/mL) | 3660 pM |  |  |  |
| CCc1nc2ncc(C)cn2c1C(=O)NCc1ccc(-c2nc3n(n2)CCCC3)c(F)c1 [Compound 32ab] | 100% | 100% | 100% | 100% | 0.248 µM (≈ 0.108 µg/mL) | 79800 pM |  |  |  |
| CCc1nc2ncc(C)cn2c1C(=O)NCc1ccc(-c2nc3n(n2)CCC(OC(F)(F)F)C3)cc1 (stereo not drawn) [Compound 33ab] | 100% | 64% | 100% | 100% | 0.039 µM (≈ 0.0195 µg/mL) | 12700 pM |  |  |  |
| O=C(NCc1ccc(-c2cn3c(n2)CC(C(F)(F)F)CC3)nc1)c1c(C(F)(F)F)nc2ccccn12 (stereo not drawn) [Compound 36ab] |  |  |  |  |  |  |  |  | Chemical stability data, Buffer pH2 [1, 4]: 100%; Chemical stability data, Buffer pH4 [1, 5]: 100%; Chemical stability data, Buffer pH7 [1, 6]: 100%; Chemical stability data, Vehicle DMSO [1, 7]: 100%; Bacterial activity pMIC50 [2]: <6.301 |
| CCc1nc2ncc(OC)cn2c1C(=O)NCc1ccc(-c2nc3n(n2)CC[C@H](C(F)(F)F)C3)cc1 [Compound 49] |  |  |  |  | 0.023 µM (≈ 0.0115 µg/mL) | 7760 pM | 1.8 h | 12.9 µL/min/mg |  |
| O=C(NCc1ccc(-c2nc3n(n2)CC[C@@H](C(F)(F)F)C3)cc1)c1c(C(F)F)nc2n1CCCC2 [Compound 80] |  |  |  |  | 0.2 µM (≈ 0.0989 µg/mL) | 56200 pM | 1.42 h | 16.3 µL/min/mg |  |
| O=C(NCc1ccc(-c2nc3n(n2)CC[C@H](C(F)(F)F)C3)cc1)c1c(C(F)F)nc2n1CCCC2 [Compound 174] |  |  |  |  | 0.25 µM (≈ 0.124 µg/mL) | 67600 pM | 1.34 h | 17.3 µL/min/mg |  |
| CCc1nc2ncccn2c1C(=O)NCc1ccc(-c2cc3n(n2)CCC(C(F)(F)F)C3)cc1 (stereo not drawn) [Compound 180] |  |  |  |  | 0.12 µM (≈ 0.0562 µg/mL) | 20000 pM | 2.35 h | 9.9 µL/min/mg |  |
| CCc1nc2ncccn2c1C(=O)NCc1ccc(-c2cn3c(n2)CC(C(F)(F)F)CC3)c(F)c1 (stereo not drawn) [Compound 186] |  |  |  |  | 0.19 µM (≈ 0.0924 µg/mL) | 40700 pM | > 3 h | < 7.7 µL/min/mg |  |
